Test results from US20240199546A1, “INHIBITORS OF SOLUTE CARRIER FAMILY 6A MEMBER 19 (SLC6A19) AND METHODS OF USE THEREOF” (Maze Therapeutics, Inc., priority 2022, published 2024).
pIC50: −log10 of the molar value.

Columns and labels:
human SLC6A19 and TMEM27 [1] = target: T1, human SLC6A19 and TMEM27 (Homo sapiens, UniProt Q695T7); experiment: 13C6,15N-isoleucine uptake in CHO cells with doxycycline-inducible expression of human SLC6A19 and TMEM27, RapidFire mass spectrometry (Example B-2); type: cell-based; conditions: read-out: SLC6A19_RapidFire Uptake Assay IC50
T1 construct: expressed in transfected cells
T1 sequence (Q695T7 1-634): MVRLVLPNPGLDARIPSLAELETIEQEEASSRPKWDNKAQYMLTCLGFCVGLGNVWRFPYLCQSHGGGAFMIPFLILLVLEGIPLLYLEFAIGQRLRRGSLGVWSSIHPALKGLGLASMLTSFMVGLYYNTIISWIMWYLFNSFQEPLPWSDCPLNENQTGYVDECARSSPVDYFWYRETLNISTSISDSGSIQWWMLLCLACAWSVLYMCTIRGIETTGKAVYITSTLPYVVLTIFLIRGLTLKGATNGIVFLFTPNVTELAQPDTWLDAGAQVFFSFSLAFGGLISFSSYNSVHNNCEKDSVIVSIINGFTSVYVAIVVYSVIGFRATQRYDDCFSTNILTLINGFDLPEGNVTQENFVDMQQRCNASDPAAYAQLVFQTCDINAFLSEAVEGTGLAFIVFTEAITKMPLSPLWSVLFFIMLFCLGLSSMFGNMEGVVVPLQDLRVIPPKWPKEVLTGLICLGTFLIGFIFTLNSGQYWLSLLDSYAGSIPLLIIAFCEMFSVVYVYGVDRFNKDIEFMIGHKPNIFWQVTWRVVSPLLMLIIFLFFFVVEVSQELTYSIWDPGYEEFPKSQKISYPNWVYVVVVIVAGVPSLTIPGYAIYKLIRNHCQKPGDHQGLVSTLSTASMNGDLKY
T1 sequence (Q9HBJ8 15-222 partner): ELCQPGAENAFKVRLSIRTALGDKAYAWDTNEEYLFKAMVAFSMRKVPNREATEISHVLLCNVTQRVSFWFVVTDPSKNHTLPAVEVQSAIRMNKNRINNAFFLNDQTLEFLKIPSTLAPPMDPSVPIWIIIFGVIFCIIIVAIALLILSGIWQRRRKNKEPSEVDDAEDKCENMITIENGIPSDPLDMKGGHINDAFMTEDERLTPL
Summary of the method: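 Read-out is RapidFire mass-spec peak area of 13C6,15N-isoleucine taken up over 20 min at 37 °C, after 20 min compound pre-exposure in pH 7.2 HEPES-buffered saline. Cells: doxycycline-induced CHO co-expressing human SLC6A19 and TMEM27; compounds as duplicate 10-point 2-fold dilutions, positive control setting 0% activity.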

human SLC6A19 and TMEM27 [2] = target: T1, human SLC6A19 and TMEM27; experiment: Radiolabelled (3H) leucine uptake in CHO cells with doxycycline-inducible expression of human SLC6A19 and TMEM27 (Example B-1); type: cell-based; conditions: CHO cells with doxycycline-inducible expression of human SLC6A19 and TMEM27, read-out: SLC6A19_Radioligand Uptake Assay IC50
Summary of the method: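 CHO cells were induced with doxycycline for 18 h at 37 °C, washed in HBSS, then exposed to compounds for 1 h: 8-point, 3-fold dilutions in duplicate, 0.5% DMSO final. Uptake measured by scintillation counting after 2 h shaking. Activity normalized with positive control as 0% and DMSO as 100%.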

Row | Structure (SMILES) | pIC50 (human SLC6A19 and TMEM27 [1]) | pIC50 (human SLC6A19 and TMEM27 [2])
1 | CC1CCCN1C(=O)NCc1cc2cc(F)c(OCc3ccon3)cc2[nH]1 (stereo not drawn) [Compound 90, N-((5-fluoro-6-(isoxazol-3-ylmethoxy)-1H-indol-2-yl)methyl)-2-methylpyrrolidine-1-carboxamide] | 5.92 | 6.06
2 | O=C(NCc1cc2cc(Cl)c(NCc3cscn3)cc2[nH]1)N1CCC1 [Compound 472, N-((5-chloro-6-((thiazol-4-ylmethyl)amino)-1H-indol-2-yl)methyl)azetidine-1-carboxamide] | 6.40 | 6.52
3 | O=C(NCc1cc2cc(F)c(CCc3ccon3)cc2[nH]1)N1CCC1 [Compound 602, N-((5-fluoro-6-(2-(isoxazol-3-yl)ethyl)-1H-indol-2-yl)methyl)azetidine-1-carboxamide] | 6.22 | 6.09
4 | CC1CCN(C(=O)NCc2cc3ccc(OCc4ccon4)cc3[nH]2)C1 (stereo not drawn) [Compound 121, N-((6-(isoxazol-3-ylmethoxy)-1H-indol-2-yl)methyl)-3-methylpyrrolidine-1-carboxamide] | 6.23 | 6.55
5 | CC1(C(=O)NCc2cc3cc(Cl)c(OCc4c(F)ccnc4Cl)cc3[nH]2)CC1 [Compound 351, N-((5-chloro-6-((2-chloro-4-fluoropyridin-3-yl)methoxy)-1H-indol-2-yl)methyl)-1-methylcyclopropane-1-carboxamide] | 5.81 | 5.61
6 | Cc1cc(COc2cc3[nH]c(CNC(=O)C4(C)CC4)cc3cc2F)on1 [Compound 12, N-((5-fluoro-6-((3-methylisoxazol-5-yl)methoxy)-1H-indol-2-yl)methyl)-1-methylcyclopropane-1-carboxamide] | 6.84 | 7.10
7 | CC1(C(=O)NCc2cc3cc(Cl)c(NCc4ccon4)cc3[nH]2)CC1 [Compound 151, N-((5-chloro-6-((isoxazol-3-ylmethyl)amino)-1H-indol-2-yl)methyl)-1-methylcyclopropane-1-carboxamide] | 6.76 | 6.74
8 | CC1(C(=O)NCc2cc3cc(Cl)c(OCc4cc(C(F)F)on4)cc3[nH]2)CC1 [Compound 96, N-((5-chloro-6-((5-(difluoromethyl)isoxazol-3-yl)methoxy)-1H-indol-2-yl)methyl)-1-methylcyclopropane-1-carboxamide] | 6.45 | 6.58
9 | CC1(C(=O)NCc2cc3ccc(OCc4cnsc4)cc3[nH]2)CC1 [Compound 68, N-((6-(isothiazol-4-ylmethoxy)-1H-indol-2-yl)methyl)-1-methylcyclopropane-1-carboxamide] | 6.93 | 6.92
10 | CC1(C(=O)NCc2cc3cc(C(F)F)c(OCc4cscn4)cc3[nH]2)CC1 [Compound 645, N-((5-(difluoromethyl)-6-(thiazol-4-ylmethoxy)-1H-indol-2-yl)methyl)-1-methylcyclopropane-1-carboxamide] | 6.28 | 6.02
11 | CC1(C(=O)NCc2cc3cc(F)c(OCc4ccon4)cc3[nH]2)CC1 [Compound 6, N-((5-fluoro-6-(isoxazol-3-ylmethoxy)-1H-indol-2-yl)methyl)-1-methylcyclopropane-1-carboxamide] | 6.83 | 6.76
12 | O=C(NCc1cc2cc(Cl)c(OCc3cscn3)cc2[nH]1)C1CC1 [Compound 147, N-((5-chloro-6-(thiazol-4-ylmethoxy)-1H-indol-2-yl)methyl)cyclopropanecarboxamide] | 7.48 | 7.17
13 | CC(=O)NCc1cc2cc(Cl)c(NCc3cscn3)cc2[nH]1 [Compound 229, N-((5-chloro-6-((thiazol-4-ylmethyl)amino)-1H-indol-2-yl)methyl)acetamide] | 6.69 | 6.80
14 | CCC(=O)NCc1cc2cc(F)c(OCc3cc(C)no3)cc2[nH]1 [Compound 548, N-((5-fluoro-6-((3-methylisoxazol-5-yl)methoxy)-1H-indol-2-yl)methyl)propionamide] | 7.26 | 7.00
15 | CC1(C(=O)NCc2cc3cc(Cl)c(OCc4ccco4)cc3[nH]2)CC1 [Compound 66, N-((5-chloro-6-(furan-2-ylmethoxy)-1H-indol-2-yl)methyl)-1-methylcyclopropane-1-carboxamide] | 7.57 | 7.15
